# Test results published in US12655116B2, “Substituted isophthalic acid diamides” (Bayer Aktiengesellschaft, priority 2020, dated 2026).
# Key:
# ABUTH [1] = assay: Post-emergence herbicidal action against ABUTH; format: in vivo, Abutilon theophrasti; conditions: visual assessment about 3 weeks after treatment vs untreated controls
# Procedure, shortened: (§1)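 Herbicidal action is a visual percentage rating (0% = as untreated control, 100% = plants dead) made roughly 3 weeks after treatment. Plants were grown in sandy loam in the greenhouse and treated at the one-leaf stage, 2 to 3 weeks post-sowing. Treatment was a foliar spray of wettable-powder or emulsion-concentrate formulations at 600 to 800 l/ha water plus 0.2% wetting agent.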
# ABUTH [2] = assay: Pre-emergence herbicidal action against ABUTH; format: in vivo, Abutilon theophrasti
# Procedure, shortened: (§2)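 Sandy loam pots, seeds covered with soil, then surface-treated with WP or EC formulations at 600–800 l/ha water plus 0.2% wetting agent. Greenhouse, 3 weeks. Percent damage vs untreated controls.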
# DIGSA [3] = assay: Post-emergence herbicidal action against DIGSA; format: in vivo, Digitaria sanguinalis
# Procedure, shortened: as §1
# ECHCG [4] = assay: Pre-emergence herbicidal action against ECHCG; format: in vivo, Echinochloa crus-galli; conditions: 80 g/ha
# Procedure, shortened: as §2
# ALOMY [5] = assay: Post-emergence herbicidal action against ALOMY; format: in vivo, Alopecurus myosuroides; conditions: visual assessment about 3 weeks after treatment vs untreated controls
# Procedure, shortened: as §1
# MATIN [6] = assay: Pre-emergence herbicidal action against MATIN; format: in vivo, Matricaria inodora
# Procedure, shortened: as §2
# AVEFA [7] = assay: Post-emergence herbicidal action against AVEFA; format: in vivo, Avena fatua; conditions: 20 g/ha, visual assessment about 3 weeks after treatment, 100% = plants have died, 0% = like control plants
# Procedure, shortened: as §1
# ALOMY [8] = assay: Pre-emergence herbicidal action against ALOMY; format: in vivo, Alopecurus myosuroides; conditions: 80 g/ha, pre-emergence, scored visually after 3 weeks vs untreated controls (100% = plants have died, 0% = like control plants)
# Procedure, shortened: as §2
# SETVI [9] = assay: Pre-emergence herbicidal action against SETVI; format: in vivo, Setaria viridis; conditions: dosage 80 g/ha
# Procedure, shortened: as §2
# MATIN [10] = assay: Post-emergence herbicidal action against MATIN; format: in vivo, Matricaria inodora
# Procedure, shortened: as §1
# DIGSA [11] = assay: Pre-emergence herbicidal action against DIGSA; format: in vivo, Digitaria sanguinalis
# Procedure, shortened: as §2
# AMARE [12] = assay: Post-emergence herbicidal action against AMARE; format: in vivo, Amaranthus retroflexus; conditions: 20 g/ha, visual assessment about 3 weeks after treatment, 100% = plants have died, 0% = like control plants
# Procedure, shortened: as §1
# SETVI [13] = assay: Post-emergence herbicidal action against SETVI; format: in vivo, Setaria viridis
# Procedure, shortened: as §1
# ECHCG [14] = assay: Post-emergence herbicidal action against ECHCG; format: in vivo, Echinochloa crus-galli
# Procedure, shortened: as §1
# PHBPU [15] = assay: Pre-emergence herbicidal action against PHBPU; format: in vivo, Pharbitis purpurea
# Procedure, shortened: as §2
# AMARE [16] = assay: Pre-emergence herbicidal action against AMARE; format: in vivo, Amaranthus retroflexus
# Procedure, shortened: as §2
# VIOTR [17] = assay: Post-emergence herbicidal action against VIOTR; format: in vivo, Viola tricolor
# Procedure, shortened: as §1
# VERPE [18] = assay: Post-emergence herbicidal action against VERPE; format: in vivo, Veronica persica; conditions: 20 g/ha
# Procedure, shortened: as §1
# POLCO = assay: Pre-emergence herbicidal action against POLCO; format: in vivo, Polygonum convolvulus; conditions: dosage 80 g/ha
# Procedure, shortened: as §2
# VERPE [19] = assay: Pre-emergence herbicidal action against VERPE; format: in vivo, Veronica persica
# Procedure, shortened: as §2
# VIOTR [20] = assay: Pre-emergence herbicidal action against VIOTR; format: in vivo, Viola tricolor
# Procedure, shortened: as §2
# AVEFA [21] = assay: Pre-emergence herbicidal action against AVEFA; format: in vivo, Avena fatua; conditions: pre-emergence
# Procedure, shortened: as §2
# PHBPU [22] = assay: Post-emergence herbicidal action against PHBPU; format: in vivo, Pharbitis purpurea; conditions: Ipomoea purpurea, 504 h, dosage 20 g/ha
# Procedure, shortened: as §1
# [23] = 80 g/ha, scored visually after 3 weeks vs untreated controls (100% = plants have died, 0% = like control plants)
# [24] = Tripleurospermum inodorum, 504 h, dosage 20 g/ha
smiles,measurement,setting,value
CCn1nnnc1NC(=O)c1ccc(C(F)(F)F)c(C(=O)NC(C)C2CC2)c1C1CC1 (stereo not drawn) [Example 2-292],Post-emergence action against ABUTH in %,ABUTH [1]; dosage 20 g/ha,80%
same,Pre-emergence action against ABUTH (herbicidal activity),ABUTH [2]; [23],100%
same,Pre-emergence action against ABUTH (herbicidal activity in percent),"ABUTH [2]; dosage 20 g/ha, scored visually after 3 weeks vs untreated controls, 100% = plants have died, 0% = like control plants",100%
same,Post-emergence action against DIGSA in %,DIGSA [3]; 5 g/ha,90%
same,Post-emergence action against DIGSA,DIGSA [3]; 20 g/ha,90%
same,Pre-emergence action against ECHCG in %,ECHCG [4],100%
same,Post-emergence action against ALOMY in %,ALOMY [5]; dosage 20 g/ha,80%
same,Pre-emergence action against MATIN in %,MATIN [6]; dosage 20 g/ha,90%
same,Pre-emergence action against MATIN in %,MATIN [6]; dosage 80 g/ha,100%
same,Post-emergence action at 20 g/ha against AVEFA in %,AVEFA [7],80%
same,Pre-emergence action against ALOMY (herbicidal activity),ALOMY [8],90%
same,Pre-emergence action against SETVI in %,SETVI [9],100%
same,Post-emergence action against MATIN in %,MATIN [10]; dosage 5 g/ha,80%
same,Post-emergence action against MATIN in %,MATIN [10]; dosage 20 g/ha,90%
same,Pre-emergence action against DIGSA in %,DIGSA [11]; dosage 20 g/ha,100%
same,Pre-emergence action against DIGSA in %,DIGSA [11]; dosage 80 g/ha,100%
same,Post-emergence action at 20 g/ha against AMARE in %,AMARE [12],90%
same,Post-emergence action against SETVI in %,SETVI [13]; dosage 20 g/ha,80%
same,Post-emergence action against ECHCG in %,ECHCG [14]; dosage 5 g/ha,80%
same,Post-emergence action against ECHCG in %,ECHCG [14]; dosage 20 g/ha,80%
same,Pre-emergence action against PHBPU in %,PHBPU [15]; dosage 20 g/ha,80%
same,Pre-emergence action against PHBPU in %,PHBPU [15]; dosage 80 g/ha,90%
same,Pre-emergence action against AMARE in %,"AMARE [16]; 20 g/ha, scored visually after 3 weeks vs untreated controls, 100% = plants have died, 0% = like control plants",100%
same,Pre-emergence action against AMARE in %,AMARE [16]; [23],100%
same,Post-emergence action against VIOTR in %,VIOTR [17]; 20 g/ha,80%
same,Post-emergence action against VERPE in %,VERPE [18],80%
same,Pre-emergence action against POLCO in %,POLCO,100%
same,Pre-emergence action against VERPE in %,VERPE [19]; dosage 20 g/ha,90%
same,Pre-emergence action against VERPE in %,VERPE [19]; dosage 80 g/ha,100%
same,Pre-emergence action against VIOTR in %,VIOTR [20]; dosage 20 g/ha,100%
same,Pre-emergence action against VIOTR in %,VIOTR [20]; dosage 80 g/ha,100%
same,Pre-emergence action against AVEFA in %,AVEFA [21]; 80 g/ha,90%
CCn1nnnc1NC(=O)c1ccc(C(F)F)c(C(=O)NC(C)C)c1C [Example 2-345],pest or weed control at 5 g/ha,"ABUTH [1]; Abutilon theophrasti, 504 h, dosage 5 g/ha",90%
same,pest or weed control at 20 g/ha,"ABUTH [1]; Abutilon theophrasti, 504 h, dosage 20 g/ha",90%
same,pest or weed control at 20 g/ha,PHBPU [22],100%
same,pest or weed control at 80 g/ha,"ABUTH [2]; Abutilon theophrasti, 504 h, 80 g/ha, scored visually after 3 weeks vs untreated controls (100% = plants have died, 0% = like control plants)",100%
same,pest or weed control at 20 g/ha,"ABUTH [2]; Abutilon theophrasti, 504 h, dosage 20 g/ha, scored visually after 3 weeks vs untreated controls, 100% = plants have died, 0% = like control plants, read-out: Pre-emergence action against ABUTH (herbicidal activity in percent)",90%
same,pest or weed control at 80 g/ha,"ECHCG [4]; Echinochloa crus-galli, 504 h",90%
same,pest or weed control at 5 g/ha,"ALOMY [5]; Alopecurus myosuroides, 504 h, dosage 5 g/ha",80%
same,pest or weed control at 20 g/ha,"ALOMY [5]; Alopecurus myosuroides, 504 h, dosage 20 g/ha",80%
same,pest or weed control at 20 g/ha,MATIN [6]; [24],100%
same,pest or weed control at 80 g/ha,"MATIN [6]; Tripleurospermum inodorum, 504 h, dosage 80 g/ha",100%
same,pest or weed control at 20 g/ha,"AVEFA [7]; Avena fatua, 504 h",80%
same,pest or weed control at 80 g/ha,"ALOMY [8]; Alopecurus myosuroides, 504 h",80%
same,pest or weed control at 80 g/ha,"SETVI [9]; Setaria viridis, 504 h",100%
same,pest or weed control at 5 g/ha,"MATIN [10]; Tripleurospermum inodorum, 504 h, dosage 5 g/ha",90%
same,pest or weed control at 20 g/ha,MATIN [10]; [24],100%
same,pest or weed control at 20 g/ha,"AMARE [12]; Amaranthus retroflexus, 504 h",100%
same,pest or weed control at 5 g/ha,"SETVI [13]; Setaria viridis, 504 h, dosage 5 g/ha",80%
same,pest or weed control at 20 g/ha,"SETVI [13]; Setaria viridis, 504 h, dosage 20 g/ha",100%
same,pest or weed control at 20 g/ha,"ECHCG [14]; Echinochloa crus-galli, 504 h, dosage 20 g/ha",80%
same,pest or weed control at 80 g/ha,"PHBPU [15]; Ipomoea purpurea, 504 h, dosage 80 g/ha",80%
same,pest or weed control at 20 g/ha,"AMARE [16]; Amaranthus retroflexus, 504 h, 20 g/ha, scored visually after 3 weeks vs untreated controls, 100% = plants have died, 0% = like control plants",100%
same,pest or weed control at 80 g/ha,"AMARE [16]; Amaranthus retroflexus, 504 h, 80 g/ha, scored visually after 3 weeks vs untreated controls, 100% = plants have died, 0% = like control plants",100%
same,pest or weed control at 5 g/ha,"VIOTR [17]; Viola tricolor, 504 h, 5 g/ha",90%
same,pest or weed control at 20 g/ha,"VIOTR [17]; Viola tricolor, 504 h, 20 g/ha",90%
same,pest or weed control at 20 g/ha,"VERPE [18]; Veronica persica, 504 h",80%
same,pest or weed control at 80 g/ha,"POLCO; Fallopia convolvulus, 504 h",90%
same,pest or weed control at 80 g/ha,"VERPE [19]; Veronica persica, 504 h, dosage 80 g/ha",100%
same,pest or weed control at 20 g/ha,"VIOTR [20]; Viola tricolor, 504 h, dosage 20 g/ha",80%
same,pest or weed control at 80 g/ha,"VIOTR [20]; Viola tricolor, 504 h, dosage 80 g/ha",100%
same,pest or weed control at 80 g/ha,"AVEFA [21]; Avena fatua, 504 h, 80 g/ha",80%
same,pest or weed control at 20 g/ha,"AVEFA [21]; Avena fatua, 504 h, 20 g/ha, scored visually after 3 weeks, 100% = plants have died, 0% = like control plants",80%
